Measurements reported in DBAASP.
Converted amounts (≈) assume the structure as drawn. “And” between values parts separate entries of the source, which are not always exact repeats. Equal entries are not always repeated. Each block holds one compound with its values, some of them ahead of it.

What was measured:
Experiment in all cases: ≥ marks a high value that may be exact or a test limit, other limits are often not marked, values filed in µg/mL are converted to µM
[1] = tested on: Bacillus subtilis NBRC 3513
[2] = tested on: Staphylococcus aureus NBRC 12732
[3] = tested on: Bacillus megaterium ATCC 19213
[4] = tested on: Staphylococcus epidermidis NBRC 12933
[5] = tested on: Salmonella enterica subsp. enterica serovar Typhimurium ATCC 14028
[6] = tested on: Azotobacter vinelandii
[7] = tested on: Enterobacter cloacae 2524
[8] = tested on: Klebsiella pneumoniae 1625
[9] = tested on: Klebsiella pneumoniae ST258
[10] = tested on: Staphylococcus aureus ATCC 25923
[11] = tested on: Streptococcus pneumoniae ATCC 49619
[12] = tested on: Klebsiella pneumoniae 913
[13] = tested on: Acinetobacter baumannii
[14] = tested on: Enterobacter cloacae 6780
[15] = tested on: Escherichia coli ATCC 25922
[16] = tested on: Escherichia coli 4530
[17] = tested on: Pseudomonas aeruginosa 4677
[18] = tested on: Escherichia coli 170
[19] = tested on: Salmonella typhimurium
[20] = tested on: Pseudomonas aeruginosa ATCC 27853
[21] = tested on: Pseudomonas aeruginosa IFO 12582
[22] = tested on: Staphylococcus aureus IFO 12732
[23] = tested on: Bacillus subtilis IFO 3134
[24] = tested on: Escherichia coli IFO 12734
[25] = tested on: Staphylococcus aureus
[26] = tested on: Escherichia coli W160-37
[27] = tested on: Listeria monocytogenes ATCC 19111
[28] = tested on: Staphylococcus epidermidis
[29] = tested on: Staphylococcus aureus A170
[30] = tested on: Staphylococcus aureus ATCC 29213
[31] = tested on: Proteus vulgaris ATCC 49132
[32] = tested on: Klebsiella oxytoca ATCC 49131
[33] = tested on: Candida albicans ATCC 37092
[34] = tested on: Candida tropicalis ATCC 37097
[35] = tested on: Aspergillus fumigatus
[36] = tested on: Escherichia coli D22
[37] = tested on: Micrococcus luteus A270
[38] = tested on: Neurospora crassa CBS 327-54

Structure (SMILES): CC(C)[C@H](NC(=O)[C@H](CCCCN)NC(=O)[C@@H](NC(=O)[C@@H](NC(=O)[C@H](CCC(=O)O)NC(=O)[C@H](CC(N)=O)NC(=O)[C@H](CCC(=O)O)NC(=O)[C@H](CCCCN)NC(=O)[C@H](CC(=O)O)NC(=O)[C@H](CC(=O)O)NC(=O)[C@H](CCC(=O)O)NC(=O)[C@H](CCC(=O)O)NC(=O)[C@H](CCC(=O)O)NC(=O)[C@@H](NC(=O)[C@H](CCCCN)NC(=O)[C@H](CC(=O)O)NC(=O)[C@H](CC(=O)O)NC(=O)[C@@H](N)CC(=O)O)[C@@H](C)O)[C@@H](C)O)[C@@H](C)O)C(=O)N[C@H](C(=O)N[C@@H](CCC(=O)O)C(=O)O)C(C)C [DDDKTEEEDDKENETTKVVE]
MIC [5]: 42.3 µM (≈ 100 µg/mL)
MIC [6]: ≥ 84.6 µM

Structure (SMILES): CC[C@H](C)[C@H](NC(=O)CN)C(=O)N[C@@H](CC(C)C)C(=O)N[C@@H](CCCCN)C(=O)N[C@H](C(=O)N[C@H](C(=O)N[C@@H](CCCCN)C(=O)N[C@@H](CO)C(=O)N[C@H](C(=O)N[C@@H](C)C(=O)N[C@@H](CO)C(=O)N[C@@H](CCCCN)C(=O)N[C@@H](CC(C)C)C(=O)N[C@@H](CCCCN)C(=O)N[C@@H](CCCN=C(N)N)C(=O)N[C@@H](CCCCN)C(=O)N[C@@H](C)C(=O)N[C@@H](CCCCN)C(=O)O)[C@@H](C)CC)[C@@H](C)CC)[C@@H](C)O [GILKTIKSIASKLKRKAK]
MIC [7]: ≥ 50 µM
MIC [8]: 1.56 µM (≈ 3.09 µg/mL)
MIC [9]: 25.2 µM (≈ 50 µg/mL)
MIC [10]: > 25.2 µM
MIC [11]: ≥ 50 µM
MIC [12]: 3.12 µM (≈ 6.19 µg/mL)
MIC [13]: 2.21 µM (≈ 4.38 µg/mL)
MIC [14]: 3.12 µM (≈ 6.19 µg/mL)
MIC [15]: 1.56 µM (≈ 3.09 µg/mL)
MIC [16]: 25 µM (≈ 49.6 µg/mL)
MIC [17]: 25 µM (≈ 49.6 µg/mL)
MIC [18]: 1.56 µM (≈ 3.09 µg/mL)
MIC [19]: 1.6 µM (≈ 3.17 µg/mL)
MIC [20]: > 25.2 µM

Structure (SMILES): CC[C@H](C)[C@H](NC(=O)[C@H](C)NC(=O)[C@@H]1CCCN1C(=O)[C@@H](NC(=O)[C@@H](NC(=O)[C@H](Cc1cnc[nH]1)NC(=O)[C@H](C)NC(=O)[C@H](C)NC(=O)[C@@H](NC(=O)[C@H](CCCCN)NC(=O)[C@H](C)NC(=O)[C@H](CC(C)C)NC(=O)[C@@H](NC(=O)CNC(=O)[C@H](Cc1ccccc1)NC(=O)[C@H](CC(C)C)NC(=O)CN)C(C)C)C(C)C)C(C)C)C(C)C)C(=O)N[C@@H](C)C(=O)N[C@@H](CCCCN)C(=O)N[C@@H](Cc1cnc[nH]1)C(=O)N[C@@H](Cc1ccccc1)C(N)=O [GLFGVLAKVAAHVVPAIAKHF]
MIC [21]: ≥ 32 µM
MIC [22]: 4 µM (≈ 8.58 µg/mL)
MIC [23]: 4 µM (≈ 8.58 µg/mL)
MIC [24]: 16 µM (≈ 34.3 µg/mL)

Structure (SMILES): CC[C@H](C)[C@H](NC(=O)[C@@H]1CCCN1C(=O)[C@H](CC(C)C)NC(=O)[C@@H](N)CC(C)C)C(=O)N[C@H](C(=O)N[C@@H](C)C(=O)N[C@@H](CC(N)=O)C(=O)N[C@@H](CC(C)C)C(=O)N[C@@H](CC(C)C)C(=O)N[C@@H](CCCCN)C(=O)N[C@@H](C)C(=O)N[C@@H](CC(C)C)C(=O)N[C@@H](CC(C)C)C(=O)O)C(C)C [LLPIVANLLKALL]
MIC [28]: 7.19 µM (≈ 10 µg/mL)
MIC [29]: 3.6 µM (≈ 5 µg/mL)

Results, then the compound that gave them:

MIC [1]: 16 µM (≈ 33.2 µg/mL)
MIC [2]: 4 µM (≈ 8.31 µg/mL)
MIC [3]: 4 µM (≈ 8.31 µg/mL)
MIC [4]: 8 µM (≈ 16.6 µg/mL)
Structure (SMILES): CC[C@H](C)[C@H](NC(=O)[C@H](C)N)C(=O)N[C@@H](Cc1ccccc1)C(=O)N[C@H](C(=O)N[C@@H](Cc1ccccc1)C(=O)N[C@H](C(=O)N[C@@H](CCCN=C(N)N)C(=O)N[C@@H](Cc1c[nH]c2ccccc12)C(=O)N[C@@H](CC(C)C)C(=O)N[C@@H](CC(C)C)C(=O)N[C@@H](CCCCN)C(=O)N[C@@H](CC(C)C)C(=O)NCC(=O)N[C@@H](Cc1cnc[nH]1)C(=O)N[C@@H](Cc1cnc[nH]1)C(=O)NCC(=O)N[C@@H](CCCN=C(N)N)C(=O)O)[C@@H](C)CC)[C@@H](C)CC [AIFIFIRWLLKLGHHGR]

MIC [25]: 6.19 µM (≈ 9.99 µg/mL)
MIC [26]: 9.29 µM (≈ 15 µg/mL)
Structure (SMILES): CC[C@H](C)[C@H](N)C(=O)N[C@@H](CC(C)C)C(=O)N1CCC[C@H]1C(=O)N[C@@H](Cc1c[nH]c2ccccc12)C(=O)N[C@@H](CCCCN)C(=O)N[C@@H](CC(C)C)C(=O)N1CCC[C@H]1C(=O)N[C@@H](CC(C)C)C(=O)N[C@@H](CC(C)C)C(=O)N1CCC[C@H]1C(=O)N[C@@H](CC(C)C)C(=O)N[C@@H](CCCN=C(N)N)C(=O)N[C@@H](CCCN=C(N)N)C(N)=O [ILPWKLPLLPLRR]

MIC [27]: 8 µM (≈ 22.3 µg/mL)
Structure (SMILES): CSCC[C@H](NC(=O)CNC(=O)[C@@H](NC(=O)[C@@H]1CCCN1C(=O)[C@H](CCSC)NC(=O)CNC(=O)[C@H](CC(N)=O)NC(=O)[C@H](CC(N)=O)NC(=O)[C@H](Cc1ccc(O)cc1)NC(=O)[C@@H](NC(=O)[C@H](CCCN=C(N)N)NC(=O)[C@H](CS)NC(=O)[C@H](CCCN=C(N)N)NC(=O)[C@H](Cc1cnc[nH]1)NC(=O)[C@H](CCCCN)NC(=O)[C@H](CCCCN)NC(=O)[C@H](CCCN=C(N)N)NC(=O)[C@@H](N)CCCCN)C(C)C)[C@@H](C)O)C(=O)N[C@@H](Cc1ccc(O)cc1)C(=O)N[C@@H](CCCN=C(N)N)C(=O)N[C@@H](Cc1c[nH]c2ccccc12)C(=O)N[C@@H](CS)C(=O)O [KRKKHRCRVYNNGMPTGMYRWC]

MIC [30]: 8.1 µM and 17.5 µM
MIC [15]: 39 µM and 33.6 µM
MIC [31]: 10.2 µM and 18.4 µM
MIC [32]: 14.1 µM and 13.1 µM
MIC [33]: 9 µM and 17.4 µM
MIC [20]: 4.1 µM and 8.7 µM
MIC [34]: 1.4 µM and 3.2 µM
Structure (SMILES): CC(C)C[C@H](NC(=O)[C@H](CCCN=C(N)N)NC(=O)[C@H](CCCN=C(N)N)NC(=O)[C@H](Cc1ccc(O)cc1)NC(=O)[C@H](CC(C)C)NC(=O)[C@@H](N)CCCN=C(N)N)C(=O)N[C@@H](Cc1ccc(O)cc1)C(=O)N[C@@H](CCCN=C(N)N)C(N)=O [RLYRRLYR]

MIC [35]: ≥ 80 µM
MIC [36]: ≥ 40 µM
MIC [37]: 2 µM (≈ 4.71 µg/mL)
MIC [38]: 5 µM (≈ 11.8 µg/mL)
Structure (SMILES): CSCC[C@H](NC(=O)[C@H](CO)NC(=O)[C@@H](N)CO)C(=O)N[C@@H](CCCCN)C(=O)N[C@@H](CC(C)C)C(=O)N[C@@H](CO)C(=O)N[C@@H](Cc1ccccc1)C(=O)N[C@@H](CCCN=C(N)N)C(=O)N[C@@H](C)C(=O)N[C@@H](CCCN=C(N)N)C(=O)N[C@@H](C)C(=O)N[C@@H](Cc1ccc(O)cc1)C(=O)N[C@@H](CO)C(=O)N[C@@H](Cc1ccccc1)C(=O)N[C@@H](CCCN=C(N)N)C(=O)NCC(=O)N1CCC[C@H]1C(=O)NCC(=O)N1CCC[C@H]1C(=O)N[C@@H](CCC(N)=O)C(=O)N[C@@H](CC(C)C)C(=O)O [SSMKLSFRARAYSFRGPGPQL]
